According to patent US8362249B2, “CXCR3 receptor antagonists” (Boehringer Ingelheim International GmbH, priority 2009, dated 2013):

Each compound was assayed against CXCR3 (Macaca fascicularis, UniProt A0A2K5UV19) (assay: functional cellular assay measuring calcium flux in CXCR3 transfected cells (block of CXCR3/IP-10 interaction)). Settings: IP-10 induced intracellular calcium flux; Cyno-CHO cells stably expressing recombinant CXCR3 and G-alpha-16.
Type: cell-based
Outline: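 Cyno-CHO cells stably co-expressing recombinant CXCR3 and G-alpha-16, loaded with Ca-4 dye (HBSS, 10 mM HEPES pH 7.4, 2 mM probenecid) for 1 h at 37 °C. Compound (10 microM final) preincubated 15 min at room temperature, then IP-10 added at EC80. Intracellular calcium flux read by fluorescence (ex 480/em 540 nm).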

Sequence of CXCR3 (A0A2K5UV19 entry or part of it): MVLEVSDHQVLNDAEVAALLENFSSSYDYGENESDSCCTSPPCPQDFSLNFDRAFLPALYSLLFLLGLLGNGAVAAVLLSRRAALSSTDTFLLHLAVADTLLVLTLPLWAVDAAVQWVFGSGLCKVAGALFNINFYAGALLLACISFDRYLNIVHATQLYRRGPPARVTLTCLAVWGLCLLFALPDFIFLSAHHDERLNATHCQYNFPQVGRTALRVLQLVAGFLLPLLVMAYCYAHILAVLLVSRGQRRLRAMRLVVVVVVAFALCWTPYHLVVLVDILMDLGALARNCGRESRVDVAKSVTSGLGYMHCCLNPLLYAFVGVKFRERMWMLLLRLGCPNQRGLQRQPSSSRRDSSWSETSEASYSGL

Row | IC50 [nM] | SMILES
1 | 18.3 | O=C(NCC(=O)N1CCN(c2ccccc2C(=O)Nc2cccnc2)CC1)c1ccc(OC(F)F)cc1 [4-Difluormethoxy-N-(2-oxo-2-{4-[2-(pyridin-3-ylcarbamoyl)-phenyl]-piperazin-1-yl}-ethyl)-benzamide]
2 | 11 | COc1ccc(C(=O)NCC(=O)N2CCN(c3ccccc3C(=O)Nc3cccnc3)CC2)cc1C [4-Methoxy-3-methyl-N-(2-oxo-2-{4-[2-(pyridin-3-ylcarbamoyl)-phenyl]-piperazin-1-yl}-ethyl)-benzamide]
3 | 16 | COc1ccc(C(=O)NCC(=O)N2CCN(c3ccccc3C(=O)Nc3cccnc3)CC2)cc1 [4-Methoxy-N-(2-oxo-2-{4-[2-(pyridin-3-ylcarbamoyl)-phenyl]-piperazin-1-yl}-ethyl)-benzamide]
4 | 3.4 | COc1ccc(C(=O)NCC(=O)N2CCN(c3ccccc3C(=O)Nc3ccncc3)CC2)cc1 [4-Methoxy-N-(2-oxo-2-{4-[2-(pyridin-4-ylcarbamoyl)-phenyl]-piperazin-1-yl}-ethyl)-benzamide]
5 | 15 | COc1ccc(C(=O)N(C)CC(=O)N2CCN(c3ccccc3C(=O)Nc3ccncc3)CC2)cc1 [4-Methoxy-N-methyl-N-(2-oxo-2-{4-[2-(pyridin-4-ylcarbamoyl)-phenyl]-piperazin-1-yl}-ethyl)-benzamide]
6 | 5.7 | Cc1cc(C)n(CC(=O)N2CCN(c3ccccc3NC(=O)c3cncc(Br)c3)CC2)n1 [5-Bromo-N-(2-{4-[2-(3,5-dimethyl-pyrazol-1-yl)-acetyl]-piperazin-1-yl}-phenyl)-nicotinamide]
7 | 25 | CS(=O)(=O)c1ccc(NC(=O)c2ccccc2N2CCN(C(=O)Cn3c(C(=O)O)cc4cc(Cl)ccc43)CC2)cc1 [5-Chloro-1-(2-{4-[2-(4-methanesulfonyl-phenylcarbamoyl)-phenyl]-piperazin-1-yl}-2-oxo-ethyl)-1-H-indole-2-carboxylic acid]
8 | 15 | Cc1cc(C)n(CC(=O)N2CCN(c3ccc(Cl)cc3C(=O)Nc3nc4c(s3)CN(C)CC4)CC2)n1 [5-Chloro-2-{4-[2-(3,5-dimethyl-pyrazol-1-yl)-acetyl]-piperazin-1-yl}-N-(5-methyl-4,5,6,7-tetrahydro-thiazolo[5,4-c]pyridin-2-yl)-benzamide]
9 | 9 | COc1cc(NC(=O)c2cc(F)ccc2N2CCN(C(=O)CN3CCCCC3=O)CC2)ccn1 [5-Fluoro-N-(2-methoxy-pyridin-4-yl)-2-{4-[2-(2-oxo-piperidin-1-yl)-acetyl]-piperazin-1-yl}-benzamide]
10 | 8.1 | CN1CCc2nc(NC(=O)c3cc(F)ccc3N3CCN(C(=O)CN4Cc5ccccc5C4=O)CC3)sc2C1 [5-Fluoro-N-(5-methyl-4,5,6,7-tetrahydro-thiazolo[5,4-c]pyridin-2-yl)-2-{4-[2-(1-oxo-1,3-dihydro-isoindol-2-yl)-acetyl]-piperazin-1-yl}-benzamide]
11 | 5.5 | COc1cc(NC(=O)c2ccccc2N2CCN(C(=O)CN(C)C(=O)c3ncoc3C)CC2)ccn1 [5-Methyl-oxazole-4-carboxylic acid (2-{4-[2-(2-methoxy-pyridin-4-ylcarbamoyl)-phenyl]-piperazin-1-yl}-2-oxo-ethyl)-methyl-amide]
12 | 15 | Cc1cc(C)n(CC(=O)N2CCN(c3ccccc3NC(=O)c3ccc(Cl)nc3)CC2)n1 [6-Chloro-N-(2-{4-[2-(3,5-dimethyl-pyrazol-1-yl)-acetyl]-piperazin-1-yl}-phenyl)-nicotinamide]
13 | 13.3 | O=C(NCC(=O)N1CCN(c2ccccc2C(=O)Nc2cccnc2)CC1)c1ccc2c(c1)OCO2 [Benzo[1,3]dioxole-5-carboxylic acid (2-oxo-2-{4-[2-(pyridin-3-ylcarbamoyl)-phenyl]-piperazin-1-yl}-ethyl)-amide]
14 | 8.7 | Cc1cc(C)n(CC(=O)N2CCN(c3ccccc3C(=O)Nc3cnc4c(c3)c(C)nn4C)CC2)n1 [N-(1,3-Dimethyl-1H-pyrazolo[3,4-b]pyridin-5-yl)-2-{4-[2-(3,5-dimethyl-pyrazol-1-yl)-acetyl]-piperazin-1-yl}-benzamide]
15 | 11.5 | Cc1cc(C)n(CC(=O)N2CCN(c3ccccc3C(=O)Nc3cnc4c(c3)c(=O)n(C)c(=O)n4C)CC2)n1 [N-(1,3-Dimethyl-2,4-dioxo-1,2,3,4-tetrahydro-pyrido[2,3-d]pyrimidin-6-yl)-2-{4-[2-(3,5-dimethyl-pyrazol-1-yl)-acetyl]-piperazin-1-yl}-benzamide]
16 | 4.1 | Cc1cc(C)n(CC(=O)N2CCN(c3ccccc3C(=O)Nc3ccnc(Br)c3)CC2)n1 [N-(2-Bromo-pyridin-4-yl)-2-{4-[2-(3,5-dimethyl-pyrazol-1-yl)-acetyl]-piperazin-1-yl}-benzamide]
17 | 7.2 | Cc1cc(C)n(CC(=O)N2CCN(c3ccccc3C(=O)Nc3ccnc(Cl)c3)CC2)n1 [N-(2-Chloro-pyridin-4-yl)-2-{4-[2-(3,5-dimethyl-pyrazol-1-yl)-acetyl]-piperazin-1-yl}-benzamide]
18 | 3.4 | COc1cc(NC(=O)c2ccccc2N2CCN(C(=O)CN3Cc4ccccc4C3=O)CC2)ccn1 [N-(2-Methoxy-pyridin-4-yl)-2-{4-[2-(1-oxo-1,3-dihydro-isoindol-2-yl)-acetyl]-piperazin-1-yl}-benzamide]

Row | IC50 [nM] | SMILES
19 | 4.4 | COc1cc(NC(=O)c2ccccc2N2CCN(C(=O)CN3CCCCC3=O)CC2)ccn1 [N-(2-Methoxy-pyridin-4-yl)-2-{4-[2-(2-oxo-piperidin-1-yl)-acetyl]-piperazin-1-yl}-benzamide]
20 | 13 | COc1cc(NC(=O)c2ccccc2N2CCN(C(=O)CN3CCCCC3=O)[C@@H](C)C2)ccn1 [N-(2-Methoxy-pyridin-4-yl)-2-{(S)-3-methyl-4-[2-(2-oxo-piperidin-1-yl)-acetyl]-piperazin-1-yl}-benzamide]
21 | 8.5 | Cc1cc(C)n(CC(=O)N2CCN(c3ccccc3C(=O)Nc3ccnc(C(C)(C)C)c3)CC2)n1 [N-(2-tert-Butyl-pyridin-4-yl)-2-{4-[2-(3,5-dimethyl-pyrazol-1-yl)-acetyl]-piperazin-1-yl}-benzamide]
22 | 7.4 | Cc1cc(C)n(CC(=O)N2CCN(c3ccccc3NC(=O)c3cccc(C(F)(F)F)c3)CC2)n1 [N-(2-{4-[2-(3,5-Dimethyl-pyrazol-1-yl)-acetyl]-piperazin-1-yl}-phenyl)-3-trifluoromethyl-benzamide]
23 | 9.1 | Cc1cc(C)n(CC(=O)N2CCN(c3ccccc3NC(=O)c3ccc(Oc4ccccc4)nc3)CC2)n1 [N-(2-{4-[2-(3,5-Dimethyl-pyrazol-1-yl)-acetyl]-piperazin-1-yl}-phenyl)-6-phenoxy-nicotinamide]
24 | 6.6 | Cc1cc(C)n(CC(=O)N2CCN(c3ccccc3NC(=O)c3ccccc3)CC2)n1 [N-(2-{4-[2-(3,5-Dimethyl-pyrazol-1-yl)-acetyl]-piperazin-1-yl}-phenyl)-benzamide]
25 | 7.6 | Cc1cc(C)n(CC(=O)N2CCN(c3ccccc3NC(=O)c3ccncc3)CC2)n1 [N-(2-{4-[2-(3,5-Dimethyl-pyrazol-1-yl)-acetyl]-piperazin-1-yl}-phenyl)-isonicotinamide]
26 | 15 | Cc1cc(C)n(CC(=O)N2CCN(c3ccccc3NC(=O)c3cccnc3)CC2)n1 [N-(2-{4-[2-(3,5-Dimethyl-pyrazol-1-yl)-acetyl]-piperazin-1-yl}-phenyl)-nicotinamide]
27 | 8.8 | COc1ccc(C(=O)NCC(=O)N2CCN(c3ncc(Cl)cc3NC(=O)c3cccc(C(F)(F)F)c3)CC2)cc1OC [N-(2-{4-[5-Chloro-3-(3-trifluoromethyl-benzoylamino)-pyridin-2-yl]-piperazin-1-yl}-2-oxo-ethyl)-3,4-dimethoxy-benzamide]
28 | 3.3 | Cc1cc(C)n(CC(=O)N2CCN(c3ccccc3C(=O)Nc3cccc(Cl)c3)CC2)n1 [N-(3-Chloro-phenyl)-2-{4-[2-(3,5-dimethyl-pyrazol-1-yl)-acetyl]-piperazin-1-yl}-benzamide]
29 | 4.5 | Cc1cc(C)n(CC(=O)N2CCN(c3ccccc3C(=O)Nc3cccc(C#N)c3)CC2)n1 [N-(3-Cyano-phenyl)-2-{4-[2-(3,5-dimethyl-pyrazol-1-yl)-acetyl]-piperazin-1-yl}-benzamide]
30 | 8.3 | Cc1cc(C)n(CC(=O)N2CCN(c3ccccc3C(=O)Nc3cc(C4CCCCC4)no3)CC2)n1 [N-(3-Cyclohexyl-isoxazol-5-yl)-2-{4-[2-(3,5-dimethyl-pyrazol-1-yl)-acetyl]-piperazin-1-yl}-benzamide]
31 | 10 | Cc1cc(C)n(CC(=O)N2CCN(c3ccccc3C(=O)Nc3cc(C(C)(C)C)ns3)CC2)n1 [N-(3-tert-Butyl-isothiazol-5-yl)-2-{4-[2-(3,5-dimethyl-pyrazol-1-yl)-acetyl]-piperazin-1-yl}-benzamide]
32 | 8.9 | Cc1cc(C)n(CC(=O)N2CCN(c3ccccc3C(=O)Nc3cc(C(C)(C)C)no3)CC2)n1 [N-(3-tert-Butyl-isoxazol-5-yl)-2-{4-[2-(3,5-dimethyl-pyrazol-1-yl)-acetyl]-piperazin-1-yl}-benzamide]
33 | 13 | Cc1cc(C)n(CC(=O)N2CCN(c3ccccc3C(=O)Nc3nc4c(Cl)cccc4s3)CC2)n1 [N-(4-Chloro-benzothiazol-2-yl)-2-{4-[2-(3,5-dimethyl-pyrazol-1-yl)-acetyl]-piperazin-1-yl}-benzamide]
34 | 7.4 | CS(=O)(=O)c1ccc(NC(=O)c2ccccc2N2CCN(C(=O)Cn3ccc4cccnc43)CC2)cc1 [N-(4-Methanesulfonyl-phenyl)-2-[4-(2-pyrrolo[2,3-b]pyridin-1-yl-acetyl)-piperazin-1-yl]-benzamide]
35 | 18.5 | Cc1cc(C)n(CC(=O)N2CCN(c3ccccc3C(=O)Nc3nc(C(C)(C)C)c(C#N)s3)CC2)n1 [N-(4-tert-Butyl-5-cyano-thiazol-2-yl)-2-{4-[2-(3,5-dimethyl-pyrazol-1-yl)-acetyl]-piperazin-1-yl}-benzamide]
36 | 15 | Cc1cc(C)n(CC(=O)N2CCN(c3ccccc3C(=O)Nc3nc(C(C)(C)C)cs3)CC2)n1 [N-(4-tert-Butyl-thiazol-2-yl)-2-{4-[2-(3,5-dimethyl-pyrazol-1-yl)-acetyl]-piperazin-1-yl}-benzamide]
